Consider 11 compounds from patent publication US10167282B2, “1-(5-tert-butyl-2-aryl-pyrazol-3-yl)-3-[2-fluoro-4-[(3-oxo-4H-pyrido [2, 3-B]pyrazin- 8-yl)oxy]phenyl]urea derivatives as RAF inhibitors for the treatment of cancer” (CANCER RESEARCH TECHNOLOGY LIMITED, priority 2013, dated 2019).

The target of one experiment is V600EBRAF. Put plainly: DELFIA kinase assay (BRAF V600E Kinase Assay). The class given is biochemical, human. The settings on record: for IC50: 100 μM ATP. On the procedure:
Compounds were assessed in a kinase assay performed according to the following protocol.
^V600EBRAF was generated by infection of SF9 insect cells cultured in SF-900 II medium (Invitrogen, Paisley, Scotland) with a baculovirus containing full-length human BRAF with an N-terminal histidine tag and purified by nickel-agarose affinity chromatography.
Full-length rabbit MEK1 protein was expressed with a GST tag at the N-terminus and a C-terminal histidine tag in Escherichia coli JM109 bacteria and purified by nickel-agarose affinity chromatography.
Combine 4950 μL of DKB and 50 μL of 2.5 mg/mL GST-MEK stock obtained as described above (to give […] of MEK per 40 μL). Then add 22.5 μL of BRAF stock obtained as described above to give ˜0.2 μL of BRAF per 40 μL.
100 mM ATP stock in distilled water, dilute to 500 μM to give 100 μM final concentration in assay.
3. Plate out 40 μL of DKB1 for all inhibitors (test compounds), DMSO control, and optionally other control compounds.
5. Add inhibitors (test compounds) at 0.5 μL per well according to desired plate layout.
8. Pre-incubate with test compounds for 10 minutes at room temperature with shaking.
9. Add 10 μL of 500 μM ATP stock, in DKB, to give 100 μM assay concentration.
10. Seal plates with TopSeal and incubate at room temperature with shaking for 45 minutes.
12. Add 50 μL per well of antibody mix and incubate for 1 hour at room temperature with shaking.
14. Add 100 μL DELFIA enhancement solution per well, cover in foil, and incubate at room temperature for 30 minutes with shaking.
15. Read on Victor plate reader (Perkin-Elmer, Turku, Finland) using Europium protocol.
Values for the blank (Empty Vector) are subtracted from all values. The DMSO controls are set as 100% activity and assay points (the response) are calculated as a percentage of the DMSO control. Data are plotted using Graphpad Prism software and a non-linear regression line is calculated using a variable slope sigmoidal dose-response equation: Y=Bottom+[Top−Bottom]/[1+10^((Log EC50−X)*HillSlope)] where X is the logarithm of concentration and Y is the response. The IC50 generated by this procedure is the concentration of the drug that produces a percentage control fluorescence value midway between the saturation, and zero-effect plateaus. Three independent assays are usually performed and the mean IC50 is reported.

In the next experiment the test system is hERG. The class given is cell-based, human. The settings on record: read-out: hERG Inhibition IC50. The method, then:
Studies were conducted at Cyprotex Discovery in Cheshire, UK according to the contractor's protocol. The studies were performed on an IonWorks™ HT instrument (Molecular Devices Corporation), which automatically performs electrophysiology measurements in […] single cells simultaneously in a specialised 384-well plate (PatchPlate™). The cells used were Chinese hamster ovary (CHO) cells stably transfected with hERG (cell-line obtained from Cytomyx, UK). A single-cell suspension was prepared in extracellular solution (Dulbecco's phosphate buffered saline with calcium and magnesium pH 7-7.2) and aliquots added automatically to each well of a PatchPlate™. The cells were then positioned over a small hole at the bottom of each well by applying a vacuum beneath the plate to form an electrical seal. The vacuum was applied through a single compartment common to all wells which was filled with intracellular solution (buffered to pH 7.2 with HEPES). The resistance of each seal was measured via a common ground-electrode in the intracellular compartment and individual electrodes placed into each of the upper wells.
Electrical access to the cell was then achieved by circulating a perforating agent, amphotericin, underneath the PatchPlate™ and then measuring the pre-compound hERG current. An electrode was positioned in the extracellular compartment and a holding potential of −80 mV applied for 15 seconds. The hERG channels were then activated by applying a depolarising step to +40 mV for 5 seconds and then clamped at −50 mV for 4 seconds to elicit the hERG tail current, before returning to −80 mV for 0.3 seconds. […]. Quinidine, an established hERG inhibitor, was included as an experimental control. […]. The test compound was left in contact with the cells for 300 seconds before recording currents using the same voltage-step protocol as in the pre-compound scan. Each concentration was tested in 4 replicate wells.
Post-compound currents were expressed as a percentage of pre-compound currents and plotted against concentration for each compound. Where concentration-dependent inhibition was observed, the data were fitted to the following equation: y=(ymax−ymin)/(1+(x/x50)^s)+ymin.
y=(post-compound current/pre-compound current)×100;
x50=concentration required to inhibit current by 50% (IC50); and […]
On the technique in general: Block of hERG is tested as a sign of cardiac risk.

Experiment [1] relates to mice with collagen-induced arthritis. The conditions noted are these: cited from earlier work.
A further experiment deals with YES1. Put plainly: Kinase profiling, radioactive (33P-ATP) filter-binding assay. The settings on record: at 1 μM. The class given is biochemical. The method, then: (§1) Activity Against Other Targets
(§2) Additional studies were conducted at The International Centre for Kinase Profiling in Dundee according to the contractor's protocol. TBAP-01 was dissolved in DMSO and assayed at a final concentration of 1 μM in 2% DMSO against 131 kinases. The assays were carried out using a radioactive (^33P-ATP) filter-binding assay.

The test system of a further experiment is TrkA. The experiment is described as above. It is filed as biochemical. The settings on record: at 1 μM. On the procedure:
as §1, §2

For another experiment, the system named is MINK1. Described as above. The class given is biochemical. The conditions noted are these: at 1 μM. On the procedure:
as §1, §2

The next experiment relates to TESK1. Described as above. The conditions noted are these: at 1 μM. The class given is biochemical. On the procedure:
as §1, §2

The next experiment deals with TAK1. The experiment is described as above. The class given is biochemical. The conditions noted are these: at 1 μM. The method, then: as §1, §2
The test system of a further experiment is DDR2. The experiment is described as above. The class given is biochemical. The settings on record: at 1 μM. On the procedure:
as §1, §2

Another experiment relates to IGF1Rβ. Described as above. It is filed as biochemical. The settings on record: not stated whether inhibition or remaining activity. The method, then: as §1, §2
The test system of the next experiment is ABL. The description is as above. It is filed as biochemical. The conditions noted are these: at 1 μM. The method, then: as §1, §2
The test system of another experiment is Tie-2. Described as above. The conditions noted are these: at 1 μM. The class given is biochemical. On the procedure: as §1, §2
The target in a further experiment is PDGFRα. Put plainly: Z'-LYTE biochemical kinase assay. The conditions noted are these: ATP 100 μM. The method, then:
as §1
(§3) Studies were conducted at Life Technologies in Paisley according to the contractor's protocol. TBAP-01 was dissolved in DMSO and assayed at final concentrations ranging from 10 μM to 0.5 nM in 1% DMSO, in the presence of an ATP concentration of 100 μM. IC50 values for test compounds were determined using the Z'-LYTE® biochemical assay employing a fluorescence-based, coupled-enzyme format based on the differential sensitivity of phosphorylated and non-phosphorylated peptides to proteolytic cleavage.

In the next experiment the target is EGFR. Put plainly: Z'-LYTE biochemical kinase assay. The conditions noted are these: ATP 100 μM. On the procedure:
as §1, §3

A further experiment deals with FGFR1. Put plainly: Z'-LYTE biochemical kinase assay. The settings on record: ATP 100 μM. On the procedure:
as §1, §3

A further experiment addresses MET. In words: Z'-LYTE biochemical kinase assay. The conditions noted are these: ATP 100 μM. On the procedure:
as §1, §3

The target of another experiment is Src. Put plainly: Z'-LYTE biochemical kinase assay. The conditions noted are these: ATP 100 μM. On the procedure: as §1, §3
The next experiment deals with KDR. In words: Z'-LYTE biochemical kinase assay. The settings on record: ATP 100 μM. On the procedure: as §1, §3
Another experiment has as its target PDGFRβ. Put plainly: Z'-LYTE biochemical kinase assay. The settings on record: ATP 100 μM. On the procedure:
as §1, §3

A further experiment deals with CRAF. Put plainly: Z'-LYTE biochemical kinase assay. The settings on record: ATP 100 μM. The method, then: as §1, §3
The next experiment addresses Lck. Put plainly: Z'-LYTE biochemical kinase assay. The settings on record: ATP 100 μM. The method, then: as §1, §3
In the next experiment the target is p38γ. Put plainly: Z'-LYTE biochemical kinase assay. The conditions noted are these: ATP 100 μM. The method, then: as §1, §3
In another experiment the target is p38α. In words: Z'-LYTE biochemical kinase assay. The settings on record: ATP 100 μM. On the procedure: as §1, §3
For experiment [2], the system named is mutant BRAF WM266.4 cells. In words: Cell based phospho-ERK assay. The conditions noted are these: Homo sapiens, WM 266-4, 6 h, read-out: Cell-Based Phospho-ERK Assay IC50.
Method: Cell Based Phospho-ERK Assay (Mutant BRAF WM266.4 Cells)
Compounds were assessed using a cell-based assay which was performed according to the following protocol.
Plate out 16,000 mutant BRAF WM266.4 cells/well in 99 μL medium in a 96-well plate.
Add 1 μL test compound to the cells (total 1 μL solution).
Incubate the cells with test compound for 6 hours at 37° C.
Read Europium Time Resolved Fluorescence in Victor2 plate reader (Perkin-Elmer, Turku, Finland).
Note that Europium counts are normalised for protein levels by dividing counts by absorbance.
Values for the blank (no cells) are subtracted from all values. The DMSO controls are set as 100% activity and assay points (the response) are calculated as a percentage of the DMSO control. Data are plotted using Graphpad Prism software and a non-linear regression line is calculated using a variable slope sigmoidal dose-response equation: Y=Bottom+[Top−Bottom]/[1+10^((Log EC50−X)*HillSlope)] where X is the logarithm of concentration and Y is the response). The IC50 generated by this procedure is the concentration of the drug that produces a percentage control fluorescence value midway between the saturation, and zero-effect plateaus. Three independent assays are usually performed and the mean IC50 is reported.
[3] abbreviates: CHO cells stably transfected with hERG, tail current.

SMILES strings stand for the structures. Read-outs that look alike come from different tables or passages of the source.

What is called IC50 is the midpoint of a concentration-inhibition curve. At V600EBRAF, `Cn1c(=O)[nH]c2nccc(Oc3ccc(NC(=O)Nc4cc(C(C)(C)C)nn4-c4cccc(F)c4)c(F)c3)c21` [AA-04, reference compound] displayed a 50% inhibitory concentration (IC50) of 0.65 µM.
As for `Cc1ccc(-n2nc(C(C)(C)C)cc2NC(=O)Nc2ccc(Oc3ccnc4[nH]c(=O)cnc34)cc2F)cc1` [AA-018, reference compound], the IC50 in the experiment with hERG (setting [3]) is > 100 µM; on V600EBRAF it was 0.064 µM.
Take `CC(C)(C)c1cc(NC(=O)Nc2ccc(Oc3ccnc4[nH]c(=O)cnc34)cc2F)n(-c2ccccc2)n1` [AA-019, reference compound]: the IC50 in the experiment with hERG (setting [3]) is > 100 µM; against V600EBRAF, 0.055 µM.
On the same counts, the results for `COc1ccc(-n2nc(C(C)(C)C)cc2NC(=O)Nc2ccc(Oc3ccnc4[nH]c(=O)cnc34)cc2F)cn1` [AA-062, reference compound] are > 100 µM and 0.079 µM.
The matching figures for `Cc1ccc(-n2nc(C(C)(C)C)cc2NC(=O)Nc2ccc(Oc3ccnc4[nH]c(=O)cnc34)cc2F)cn1` [AA-084, reference compound]: 53 µM and 0.71 µM.
Turning to `Clc1ccc(Nc2nnc(Cc3ccncc3)c3ccccc23)cc1` [PTK787/ZK222584], in [1], the “inhibition of knee swelling” value was 40% and the “inhibition of severity scores” value is recorded as 51%.
Consider `CC(C)(C)c1cc(NC(=O)Nc2ccc(Oc3ccnc4[nH]c(=O)cnc34)cc2F)n(-c2cccc(F)c2)n1` [TBAP-01], for which the YES1 activity remaining in the experiment with YES1 is 6% activity remaining at 1 μM. Further, the TrkA activity remaining in the experiment on TrkA is 6% activity remaining at 1 μM. For the same compound, in the experiment with MINK1, the MINK1 activity remaining is 4% activity remaining at 1 μM. For the same compound, the TESK1 activity remaining in the experiment with TESK1 was 5% activity remaining at 1 μM. Further, the TAK1 activity remaining in the experiment with TAK1 is 6% activity remaining at 1 μM. Further, the DDR2 activity remaining with DDR2 is 3% activity remaining at 1 μM. In addition, the “IGF1Rβ % @ 1 μM” value in the experiment on IGF1Rβ amounted to 78% @ 1. Also, the ABL activity remaining in the experiment on ABL is 4% activity remaining at 1 μM. The Tie-2 activity remaining in the experiment on Tie-2 was 3% activity remaining at 1 μM. Also, the IC50 in the experiment with hERG (setting [3]) was > 100 µM; against PDGFRα, 0.8 µM; at EGFR, 1.9 µM; against FGFR1 it was 0.47 µM; on MET, 1.4 µM; against Src it was 0.027 µM. Moreover, the IC50 came out at 0.12 µM on KDR; 0.74 µM against PDGFRβ; 0.033 µM against CRAF; 0.019 µM at Lck; 0.22 µM against p38γ; 0.47 µM on p38α. Also, 0.062 µM corresponded to half-maximal inhibition against V600EBRAF (IC50). Besides, the “fold more potent than Compound AA-04 on the BRAF kinase assay” value with V600EBRAF amounted to 10 fold. Besides, the “fold more potent than Compound AA-084 on the BRAF kinase assay” value with V600EBRAF (vs AA-084) is 11 fold.
As for `Cc1cccc(-n2nc(C(C)(C)C)cc2NC(=O)Nc2ccc(Oc3ccnc4[nH]c(=O)cnc34)cc2F)c1` [TBAP-02], the IC50 in the experiment with hERG was determined as 65 µM; against V600EBRAF it was 0.099 µM.
In the case of `CC(C)(C)c1cc(NC(=O)Nc2ccc(Oc3ccnc4[nH]c(=O)cnc34)cc2F)n(-c2cccc(C(F)(F)F)c2)n1` [TBAP-03], the IC50 with hERG (setting [3]) was > 100 µM; on V600EBRAF, 0.13 µM.
Consider `COc1cccc(-n2nc(C(C)(C)C)cc2NC(=O)Nc2ccc(Oc3ccnc4[nH]c(=O)cnc34)cc2F)c1` [TBAP-04, 1-(3-tert-butyl-1-(3-methoxyphenyl)-1H-pyrazol-5-yl)-3-(2-fluoro-4-(3-oxo-3,4-dihydropyrido[3,2-b]pyrazin-8-yloxy)phenyl)urea], for which the figures for the IC50 in the experiment on hERG (setting [3]) and at V600EBRAF were > 100 µM and 0.047 µM, respectively.
Turning to `CC(C)(C)c1cc(NC(=O)Nc2ccc(Oc3ccnc4[nH]c(=O)cnc34)cc2F)n(-c2ccnc(O)c2)n1` [TBAP-05, 1-(3-tert-butyl-1-(2-oxo-1,2-dihydropyridin-4-yl)-1H-pyrazol-5-yl)-3-(2-fluoro-4-(3-oxo-3,4-dihydropyrido[3,2-b]pyrazin-8-yloxy)phenyl)urea], the IC50 against V600EBRAF came out at 0.39 µM; in experiment [2] it was 0.45 µM.
